From patent publication US9365851B2, “Spalt-like transcription factor 4 (SALL4) and uses thereof” (National University of Singapore, priority 2011, dated 2016)

Columns and labels:
HDAC complex = molecular target: T1, HDAC complex (Homo sapiens, UniProt Q09028); assay: Fluorescent polarization competitive binding in SNU-398 nuclear extracts; settings: Example 6
T1 construct: endogenous in cells; host or cells: SNU-398 nuclear extract
Procedure: Below are the amino acid sequences of the peptides used in this study. In the mutant peptide (mut), Lys 5 is replaced with an alanine residue. […] In the first lane marked “Input”, 10% of the extracts were subjected to western blot analysis without immunoprecipitation. […] Extracts were subsequently immunoprecipitated with anti-FITC antibody and the complexes pulled down were subjected to an HDAC activity assay as described in the methods. TSA was added at a concentration of 100 nM. Input is the sample in which 10% of the extract was assayed for HDAC activity without the immunoprecipitation step. […] Competitive binding of nonlabeled wild type or scrambled peptides was measured by fluorescent polarization. […] The fluorescent polarization (y axis) is decreased if the FITC-labeled peptide is displaced from a larger complex.
Next tested was the binding affinity of the wild type and scrambled peptides to the HDAC complex. For this, Fluorescent Polarization (FP), a technology based on molecular movement and rotation in which fluorescent molecules are excited with polarized light, was used. If the fluorescent molecules are part of a large complex, they rotate less and the emitted light has high polarity. In contrast, smaller molecules rotate faster and have low polarity (“depolarized”). […] Using this approach, FITC-labeled wild type or scrambled peptides were first mixed with nuclear extracts from SNU-398 cells. Serial dilutions of unlabeled wild type or scrambled peptides were then added as competitors respectively, and measured by FP assay.

SNU-398 cells = assay: Cell viability assay (MTT/MTS); assay type: cell-based, human; settings: for cell viability on co-treatment with wt peptide (rescue): SNU-398, wt peptide + PTEN inhibitor
Procedure: (§1) Cell viability was determined 72 hours after peptide treatments. Absorbance at 490 nm is directly correlated to cell viability. Wild type functional SALL4 peptide (wt), mutant non-functional SALL4 peptide (Mut.), trichostatin A (TSA), scrambled control peptide (Scr.), wild type peptide+PTEN inhibitor SF1670 (wt+Inh.) were given to the cells at the indicated concentration. PTEN inhibitor concentration was 400 nM. (31C, 31D) Western blot analyses of the effects of peptides on PTEN, AKT, and pAKT expression on SNU-398 (31C) and SNU-387 (31D) cells 72 hours following peptide treatments. 20 μM of wt or Scr. peptide or 100 nM of TSA was used. PTEN inhibitor concentration was 400 nM. (31E) Representative images show NOD/SCID mice transplanted with Scr peptide- and wt peptide-treated SNU-398 cells (left) and the dissected subcutaneous tumors (right). Arrow indicates subcutaneous tumor. (31F) Growth curve of subcutaneous tumors (left panel) and tumor weight of tumors dissected at day 26 post-transplantation (right panel). Results are mean±s.d. n=5; * P<0.05. (31G) Representative images show NOD/SCID mice transplanted with 3 million SNU-398 cells at the left flank and treated intraperitoneally for five consecutive days with 56 mg/kg body weight TAT-Mut. peptide or 60 mg/kg body weight wt peptide (top panel) and the dissected subcutaneous tumors (bottom). (31H) Tumor weight of tumors dissected at day 18 post-transplantation and post-treatment of mice treated intraperitoneally with TAT fusion peptides as described in 5 g. Results are mean±s.d. n=5; * P<0.05.
(§2) Cell viability assay (MTT) (Invitrogen) was performed according to the manufacturer's instructions. Briefly—10000 cells were seeded in 100 ul medium in 96 well plates. The next day cells were treated as indicated on the figures. At the designated time after the treatment 20 ul of 5 mg/ml MTT solution was added to each well. After 3.5 h incubation at 37 C the medium was removed and the reaction was terminated with a solution of 4 mM HCl, 0.1% Nondet P-40 (NP40) all in isopropanol in dark on orbital shaker for […]. at room temperature. The absorbance was read at 590 nm with a reference filter of 620 nm in Spectromax M3 (ABI) spectrophotometer.
(§3) Multiple leukemic and solid tumor cancer cell lines with high or low/no SALL4 expression (FIG. 10A) were chosen to test the biological effect(s) of the wild type peptide. Wild type or scrambled peptide was delivered into tumor cells at various concentrations, and their effects on cells were evaluated 72 hours post-treatment by the MTS cell viability assay. […] The effect of wild type peptide is SALL4-specific, as it had no effect on KBM5, an AML cell line with undetectable endogenous SALL4 expression. We were surprised to see that the wild type peptide had no effect on a high SALL4-expressing endometrioid cancer cell line, AN3CA. This prompted checking whether PTEN, a gene repressed by SALL4 through its interaction with NuRD 27, was present in this cell line. According to the model herein, the function of wild type peptide requires both the expression of SALL4 and intact SALL4 downstream target genes, such as PTEN. In tumor cells with PTEN deletion, even though wild type peptide could compete with endogenous SALL4 in interacting with the HDAC complex, an anti-proliferative effect might not be observed. Therefore, expression of PTEN was evaluated in AN3CA cells along with other cell lines. While PTEN protein was present in all the other cell lines, it was absent in AN3CA cells (FIG. 10C), with reported deletion mutation of the gene in this cell line 40,41. […] Furthermore, the anti-proliferative effect also required certain downstream targets, such as PTEN.
7000 cells were seeded in each wells of a microtiter plate in 100 μL of complete medium. Cells from each treatment were seeded in duplicate. Controls using the same medium without cells were set up in parallel. […]

PTEN/AKT pathway = PTEN/AKT pathway expression in SNU-398 cells after treatment (Western blot, mRNA); assay type: cell-based, human; settings: SNU-398
From the text: The induction of Pten expression was not affected when wt peptide was administrated together with a Pten inhibitor. AKT, a molecule with levels of phosphorylation controlled by the expression of Pten was affected by the wt peptide addition accordingly. […] The effect of wt peptide on pAKT was abrogated by the Pten inhibitor. […] In contrast, the protein expression level of endogenous Pten was very high in the none-SALL4 expressing SNU387 cells.
Then tested was whether this peptide could reverse the repressive effect of SALL4 on its target genes. The focus was onPTEN, since it is implicated in SALL4-mediated leukemogenesis (Yang et al., Blood, 112:805-813 (2008); Lu et al., PLoS One, 4:e5577 (2009)). In addition, it was previously reported that SALL4 could specifically bind to the PTEN promoter region in a chromatin immunoprecipitation (ChIP) assay (Lu et al., PLoS One, 4:e5577 (2009)). When SALL4 was overexpressed in 293T cells, an enrichment of SALL4 as well as decreased H3 acetylation at this binding site was observed, which correlated with decreased PTEN RNA expression (Lu et al., PLoS One, 4:e5577 (2009))). Therefore, it was hypothesized that SALL4 could recruit the HDAC/NuRD complex to repress PTEN, and that the wild type peptide would compete with endogenous SALL4 in recruiting the HDAC/NuRD complex to the PTEN promoter, and release the repression effect of SALL4 on PTEN. Furthermore, this model would predict that wild type peptide treatment of SALL4-expressing cells would lead to increased epigenetic markers of gene activation, such as H3 acetylation, at the PTEN promoter binding site, as well as an increase in PTEN expression. To test this possibility, SNU-398 cells were treated with scrambled or wild type peptide and subsequently evaluated for PTEN expression and H3 acetylation at the SALL4 binding site at the PTEN promoter region. […] Therefore, the results herein are compatible with the model that SALL4 recruits HDACs to repress PTEN expression, and blocking the SALL4-HDAC interaction with the wild type peptide results in increased expression of PTEN.
To confirm the involvement of PTEN tumor suppressor in SALL4 peptide-induced reduction of number of viable HCC cells, PTEN expression was analyzed by western blot upon drug treatment. […] Whether the increase in PTEN expression upon SALL4 peptide treatment has an effect in PI3K signalling by dephosphorylating AKT was examined.
To confirm the involvement of the PTEN tumor suppressor in the SALL4 peptide-induced reduction of HCC cell viability, PTEN expression was analyzed by western blot upon drug treatment. […] If the increase in PTEN expression has an effect in PI3K signaling was next examined. PTEN functions as a phosphatase to dephosphorylate AKT.

SNU-387 cells = assay: Cell viability assay (MTT/MTS); assay type: cell-based, human; settings: SNU-387, wt peptide + PTEN inhibitor
Procedure: as §1, §2
7000 cells were seeded in each wells of a microtiter plate in 100 μL of complete medium. Cells from each treatment were seeded in duplicate. Controls using the same medium without cells were set up in parallel. At various time points, 317 μg/mL of 3-(4,5-dimethylthiazol-2-yl)-5-(3-carboxymethoxyphenyl)-2-(4-sulfophenyl)-2H-tetrazolium (CellTiter96® AQueous One Solution Cell Proliferation Assay, Promega) was added to each well. After four hours incubation of the tetrazolium salt, absorbance at 490 nm was read by a microplate reader.

THP1 cells = assay: MTS cell viability assay; assay type: cell-based; settings: THP1, wt peptide + PTEN inhibitor
Procedure: as §3
(§4) To further test whether the effect of wild type peptide on tumor cells is related to PTEN, a PTEN inhibitor (SF1670) was used (Li et al., Blood, 117:6702-6713). […] As a control for the specificity of SALL4, KBM5, a non-SALL4-expressing cell line was also treated with PTEN inhibitor.

KBM5 cells = assay: MTS cell viability assay; assay type: cell-based; settings: KBM5, wt peptide + PTEN inhibitor
Procedure: as §3, §4

T1 sequence (Q09028 whole entry, one chain of several): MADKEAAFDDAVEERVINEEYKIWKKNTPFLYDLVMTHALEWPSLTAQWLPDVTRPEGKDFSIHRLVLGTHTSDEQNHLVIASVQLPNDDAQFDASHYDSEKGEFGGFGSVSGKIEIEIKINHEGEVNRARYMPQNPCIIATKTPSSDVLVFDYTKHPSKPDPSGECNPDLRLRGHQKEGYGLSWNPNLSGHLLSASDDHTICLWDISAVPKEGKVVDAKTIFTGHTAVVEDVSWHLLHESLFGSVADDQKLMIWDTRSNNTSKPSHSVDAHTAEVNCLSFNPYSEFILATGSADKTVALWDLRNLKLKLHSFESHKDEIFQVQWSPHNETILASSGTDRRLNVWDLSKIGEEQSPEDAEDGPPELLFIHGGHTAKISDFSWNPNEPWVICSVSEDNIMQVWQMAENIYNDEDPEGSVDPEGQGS

Molecule | binding affinity by FP (HDAC complex) | cell viability / number of viable cells (SNU-398 cells; SNU-398 (high SALL4), 72 h) | effect of wt peptide on pAKT on co-treatment with PTEN inhibitor (PTEN/AKT pathway; listed as PTEN inhibitor) | effect of wt peptide on pAKT on co-treatment with PTEN inhibitor (PTEN/AKT pathway; listed as Pten inhibitor) | cell viability on co-treatment with wt peptide (SNU-387 cells) | cell viability on co-treatment with wt peptide (rescue) (SNU-398 cells) | cell viability on co-treatment with wt peptide (rescue) (SNU-398 cells; listed as PTEN inhibitor) | cell viability on co-treatment with wt peptide (rescue) (SNU-398 cells; listed as SF-1670) | cell viability on co-treatment with wt peptide (rescue) (THP1 cells) | cell viability on co-treatment with wt peptide (KBM5 cells)
NH2-YGRKKRRQRRR-MSAAAQAKPHI-COOH (H-YGRKKRRQRRRMSAAAQAKPHI-OH) [TAT-Mut, reference compound] | minimal binding | did not exhibit such cell killing effect | – | – | – | – | – | – | – | –
CC(C)(C)C(=O)Nc1ccc2c(c1)C(=O)C(=O)c1ccccc1-2 [SF1670, reference compound] | – | – | can be rescued | abrogated | showed no effect as well | able to rescue the phenotype | able to rescue the phenotypes | restored the cell viability to a baseline level | restored the cell viability to the baseline levels | showed no effect as well
